Literature values, collected in patent US11498743B2, “Cardboard container for active packaging of fresh fruit and vegetables and production method of same” (Universidad Politecnica de Cartagena, priority 2016, dated 2022).

| Half-life in 1M HCl at 60° C. [h] | Structure (SMILES) |
| --- | --- |
| 3.0 | OC[C@H]1O[C@@H]2O[C@H]3[C@H](O)[C@@H](O)[C@@H](O[C@H]4[C@H](O)[C@@H](O)[C@@H](O[C@H]5[C@H](O)[C@@H](O)[C@@H](O[C@H]6[C@H](O)[C@@H](O)[C@@H](O[C@H]7[C@H](O)[C@@H](O)[C@@H](O[C@H]8[C@H](O)[C@@H](O)[C@@H](O[C@H]9[C@H](O)[C@@H](O)[C@@H](O[C@H]1[C@H](O)[C@H]2O)O[C@@H]9CO)O[C@@H]8CO)O[C@@H]7CO)O[C@@H]6CO)O[C@@H]5CO)O[C@@H]4CO)O[C@@H]3CO [γ-CD, gamma-cyclodextrin] |
| 6.2 | OC[C@H]1O[C@@H]2O[C@H]3[C@H](O)[C@@H](O)[C@@H](O[C@H]4[C@H](O)[C@@H](O)[C@@H](O[C@H]5[C@H](O)[C@@H](O)[C@@H](O[C@H]6[C@H](O)[C@@H](O)[C@@H](O[C@H]7[C@H](O)[C@@H](O)[C@@H](O[C@H]1[C@H](O)[C@H]2O)O[C@@H]7CO)O[C@@H]6CO)O[C@@H]5CO)O[C@@H]4CO)O[C@@H]3CO [α-CD, alpha-cyclodextrin] |
| 5.4 | OC[C@H]1O[C@@H]2O[C@H]3[C@H](O)[C@@H](O)[C@@H](O[C@H]4[C@H](O)[C@@H](O)[C@@H](O[C@H]5[C@H](O)[C@@H](O)[C@@H](O[C@H]6[C@H](O)[C@@H](O)[C@@H](O[C@H]7[C@H](O)[C@@H](O)[C@@H](O[C@H]8[C@H](O)[C@@H](O)[C@@H](O[C@H]1[C@H](O)[C@H]2O)O[C@@H]8CO)O[C@@H]7CO)O[C@@H]6CO)O[C@@H]5CO)O[C@@H]4CO)O[C@@H]3CO [β-CD, beta-cyclodextrin] |
